# Measurements reported in ChEMBL document CHEMBL1926526, “Mefloquine-oxazolidine derivatives, derived from mefloquine and arenecarbaldehydes: In vitro activity including against the multidrug-resistant tuberculosis strain T113” (Bioorg Med Chem, 2012).
# The source made the active and inactive calls. No cut-off for these calls is given here.
# Test system: Mycobacterium tuberculosis
# Assay: Antimycobacterial activity against multiple drug-resistant Mycobacterium tuberculosis isolate T113 by alamar blue assay
# Type: functional
SMILES,MIC [µM],Activity
O=[N+]([O-])c1ccc(C2O[C@@H](c3cc(C(F)(F)F)nc4c(C(F)(F)F)cccc34)[C@H]3CCCCN23)o1 (mixture of isomers),99.8,–
COc1ccc(C2O[C@@H](c3cc(C(F)(F)F)nc4c(C(F)(F)F)cccc34)[C@H]3CCCCN23)cc1 (mixture of isomers),25.2,–
COc1cccc(C2O[C@@H](c3cc(C(F)(F)F)nc4c(C(F)(F)F)cccc34)[C@H]3CCCCN23)c1OC (mixture of isomers),11.9,–
COc1cc(C2O[C@@H](c3cc(C(F)(F)F)nc4c(C(F)(F)F)cccc34)[C@H]3CCCCN23)cc(OC)c1OC (mixture of isomers),22.5,–
FC(F)(F)c1cc([C@@H]2OC(c3ccccc3)N3CCCC[C@H]23)c2cccc(C(F)(F)F)c2n1 (mixture of isomers),26.8,–
Fc1ccc(C2O[C@@H](c3cc(C(F)(F)F)nc4c(C(F)(F)F)cccc34)[C@H]3CCCCN23)cc1 (mixture of isomers),25.8,–
CC[C@@H](CO)NCCN[C@@H](CC)CO [ETHAMBUTOL],61.2,–
O=[N+]([O-])c1ccc(C2O[C@@H](c3cc(C(F)(F)F)nc4c(C(F)(F)F)cccc34)[C@H]3CCCCN23)s1 (mixture of isomers),12.1,–
Oc1ccccc1C1O[C@@H](c2cc(C(F)(F)F)nc3c(C(F)(F)F)cccc23)[C@H]2CCCCN12 (mixture of isomers),25.9,–
Oc1ccc(C2O[C@@H](c3cc(C(F)(F)F)nc4c(C(F)(F)F)cccc34)[C@H]3CCCCN23)cc1 (mixture of isomers),25.9,–
FC(F)(F)c1cc([C@@H]2OC(c3c(Cl)cccc3Cl)N3CCCC[C@H]23)c2cccc(C(F)(F)F)c2n1 (mixture of isomers),–,inactive
FC(F)(F)c1cc([C@@H]2OC(c3ccc(Cl)cc3Cl)N3CCCC[C@H]23)c2cccc(C(F)(F)F)c2n1 (mixture of isomers),–,inactive
FC(F)(F)c1cc([C@@H]2OC(c3ncc[nH]3)N3CCCC[C@H]23)c2cccc(C(F)(F)F)c2n1 (mixture of isomers),27.4,–
FC(F)(F)c1cc([C@@H]2OC(c3cccc(Cl)c3Cl)N3CCCC[C@H]23)c2cccc(C(F)(F)F)c2n1 (mixture of isomers),–,inactive
COc1cccc(C2O[C@@H](c3cc(C(F)(F)F)nc4c(C(F)(F)F)cccc34)[C@H]3CCCCN23)c1 (mixture of isomers),25.2,–
FC(F)(F)c1cc([C@@H]2OC(c3ccc(Cl)c(Cl)c3)N3CCCC[C@H]23)c2cccc(C(F)(F)F)c2n1 (mixture of isomers),–,inactive
OC(c1cc(C(F)(F)F)nc2c(C(F)(F)F)cccc12)C1CCCCN1 (centres undefined) [MEFLOQUINE],33,–
CCOc1cccc(C2O[C@@H](c3cc(C(F)(F)F)nc4c(C(F)(F)F)cccc34)[C@H]3CCCCN23)c1 (mixture of isomers),24.5,–
COc1ccccc1C1O[C@@H](c2cc(C(F)(F)F)nc3c(C(F)(F)F)cccc23)[C@H]2CCCCN12 (mixture of isomers),12.6,–
